Measurements published in patent US20060110401A1, “Mixture of peptides from c and ns3 proteins of the hepatitis c virus and applications thereof” (priority 2002, published 2006).
Read-outs that look alike come from different tables or passages of the source. Residues, ends and D or L forms follow the SMILES beside them.

Columns and labels:
[1] = system: DP401; experiment: DP401
[2] = system: DRB3; experiment: DRB3
[3] = system: DR7; experiment: DR7
[4] = target: HLA-DP401 (DPB1*0401) (Homo sapiens, UniProt P04440+P20036); experiment: biochemical; format: binding; conditions: DP*0401; read-out: binds with good affinity to DP401
[5] = system: DRB5; experiment: DRB5
[6] = system: DP402; experiment: DP402
[7] = system: DR3; experiment: DR3
Source text: (§1) Table printed on a drawing sheet, Figure 2
Where the first naming reader finds the target: head: DR3

[8] = target: HLA-DP402 (DPB1*0402) (Homo sapiens, UniProt P04440+P20036, A65V/A84D/A85E/L207M); experiment: biochemical; format: binding; conditions: DP*0402; read-out: binds with good affinity to DP402
[9] = target: T1, HLA-DRB3 (DRB3*0101) (Homo sapiens, UniProt P01903+P79483); experiment: HLA II/peptide binding assay, HLA-DRB3; conditions: read-out: binds with good affinity to DRB3
T1 construct: endogenous in cells; host or cells: homozygous EBV-transformed human B lymphocyte lines; immunopurified with antibody L243

[10] = target: T2, HLA-DR15 (DRB1*1501) (Homo sapiens, UniProt P01903+P01911); experiment: biochemical; format: binding; conditions: DRB1*1501; read-out: binds with good affinity to DR15
T2 construct: endogenous in cells; host or cells: homozygous EBV-transformed human B lymphocyte lines; immunopurified with antibody L243

[11] = target: T3, HLA-DR4 (DRB1*0401) (Homo sapiens, UniProt P01903+P01911, A100K/A169T/F76Y/I96L/K127E/L162R/M171V/N62H/P40V/Q125Y/R42H/S133A/S149N/S66Y/V115G/V209L/W38E); experiment: biochemical; format: binding; conditions: read-out: binds with good affinity to DR4
T3 construct: endogenous in cells; host or cells: homozygous EBV-transformed human B lymphocyte lines; immunopurified with antibody L243

[12] = target: T4, HLA-DR1 (DRB1*0101) (Homo sapiens, UniProt P01903+P01911, A100R/D57E/F55L/F60I/F76Y/I96L/L162R/M171V/P40L/Q125E/R42F/V115G/Y59C); experiment: biochemical; format: binding; conditions: for IC50: DRB1*0101
T4 construct: endogenous in cells; host or cells: homozygous EBV-transformed human B lymphocyte lines; immunopurified with antibody L243

[13] = system: DRB4; experiment: DRB4
Source text: as §1
Where the first naming reader finds the target: head: DRB4

[14] = target: HLA-DR7 (DRB1*0701) (Homo sapiens, UniProt P01903+P01911, A100R/A102G/A103Q/D57E/D86V/E43K/F76Y/K127E/L162R/M171V/P40G/Q125H/Q99D/R33Q/R42Y/R54Q/S133A/S66F/T210M/V115G/Y107V/Y59L/Y89S); experiment: biochemical; format: binding; conditions: read-out: binds with good affinity to DR7
[15] = system: DR4; experiment: DR4
[16] = system: DR15; experiment: DR15
[17] = target: HLA-DR11 (DRB1*1101) (Homo sapiens, UniProt P01903+P01911, A100R/A169T/A87E/I96F/K41T/L162R/M171V/P40S/Q125H/Q178H/Q39Y/Q99D/R42S/S66Y/T262R/V115G/W38E); experiment: biochemical; format: binding; conditions: read-out: binds with good affinity to DR11
[18] = system: DR13; experiment: DR13
Source text: as §1
Where the first naming reader finds the target: head: DR13

[19] = system: DR1; experiment: DR1
[20] = target: T5, HLA-DRB5 (DRB5*0101) (Homo sapiens, UniProt P01903+Q30154); experiment: biochemical; format: binding; conditions: read-out: binds with good affinity to DRB5
T5 construct: endogenous in cells; host or cells: homozygous EBV-transformed human B lymphocyte lines; immunopurified with antibody L243

[21] = target: T6, HLA-DR3 (DRB1*0301) (Homo sapiens, UniProt P01903+P01911, A100K/A102G/A103R/A169T/F55Y/I96L/K41T/L162R/M171V/P40S/Q125H/Q178H/Q39Y/R42S/S66N/T106N/T262R/W38E/Y61H); experiment: biochemical; format: binding; conditions: read-out: binds with good affinity to DR3
T6 construct: endogenous in cells; host or cells: homozygous EBV-transformed human B lymphocyte lines; immunopurified with antibody L243

[22] = target: HLA-DR13 (DRB1*1301) (Homo sapiens, UniProt P01903+P01911, A100E/A169T/K41T/L162R/M171V/P40S/Q125H/Q178H/Q39Y/Q99D/R42S/S66N/T262R/W38E/Y61H); experiment: biochemical; format: binding; conditions: read-out: binds with good affinity to DR13
[23] = target: T7, HLA-DRB4 (DRB4*0101) (Homo sapiens, UniProt P01903+P13762, G164S); experiment: biochemical; format: binding; conditions: read-out: binds with good affinity to DRB4
T7 construct: endogenous in cells; host or cells: homozygous EBV-transformed human B lymphocyte lines; immunopurified with antibody L243

[24] = system: T lymphocytes derived from PBMCs from patients chronically infected with HCV; format: cell-based, human; conditions: supernatant 48 h, —: not detected
[25] = read-out: binds with good affinity to DR1

Sequence of HLA-DR11 (DRB1*1101) (P01903 26-254 limits assumed, other chains not shown): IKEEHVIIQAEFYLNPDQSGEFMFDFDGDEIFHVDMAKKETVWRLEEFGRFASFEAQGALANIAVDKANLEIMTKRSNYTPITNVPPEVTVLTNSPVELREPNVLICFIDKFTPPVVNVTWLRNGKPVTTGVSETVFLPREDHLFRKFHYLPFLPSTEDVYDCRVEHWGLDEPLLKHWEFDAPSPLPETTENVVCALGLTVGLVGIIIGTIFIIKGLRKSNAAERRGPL

Compound | IC50 [1] | IC50 [2] | IC50 [3] | IC50 [4] | IC50 [5] | IC50 [6] | IC50 [7] | IC50 [8] | IC50 [9] | IC50 [10] | IC50 [11] | IC50 [12, 25] | IC50 [13] | IC50 [14] | IC50 [15] | IC50 [16] | IC50 [17] | IC50 [18] | IC50 [19] | IC50 [20] | also measured
CC(C)C[C@H](NC(=O)[C@H](CCCNC(=N)N)NC(=O)[C@@H]1CCCN1C(=O)CNC(=O)[C@H](CCCNC(=N)N)NC(=O)[C@H](CCCNC(=N)N)NC(=O)[C@@H]1CCCN1C(=O)[C@H](CC(C)C)NC(=O)[C@H](CC(C)C)NC(=O)[C@H](Cc1ccc(O)cc1)NC(=O)[C@@H](NC(=O)CNC(=O)CNC(=O)[C@@H](N)C(C)C)C(C)C)C(=O)NCC(=O)N[C@H](C(=O)N[C@@H](CCCNC(=N)N)C(=O)N[C@@H](C)C(=O)N[C@H](C(=O)N[C@@H](CCCNC(=N)N)C(=O)N[C@@H](CCCCN)C(=O)N[C@H](C(=O)N[C@@H](CO)C(=O)N[C@@H](CCC(=O)O)C(=O)N[C@@H](CCCNC(=N)N)C(=O)N[C@@H](CO)C(=O)N[C@@H](CCC(N)=O)C(=O)O)[C@@H](C)O)[C@@H](C)O)C(C)C [2C 31-57] | > 100 µM | > 100 µM | 0.5 µM | < 1 µM | 0.003 µM | > 100 µM | > 100 µM | < 1 µM | – | – | – | – | – | – | – | – | – | – | – | – | –
CC[C@H](C)[C@H](NC(=O)[C@H](CC(N)=O)NC(=O)[C@@H]1CCCN1C(=O)[C@@H](N)CC(=O)O)C(=O)N[C@@H](CCCNC(=N)N)C(=O)N[C@H](C(=O)NCC(=O)N[C@H](C(=O)N[C@@H](CCCNC(=N)N)C(=O)N[C@H](C(=O)N[C@H](C(=O)N[C@H](C(=O)N[C@H](C(=O)NCC(=O)N[C@@H](CO)C(=O)N1CCC[C@H]1C(=O)N[C@H](C(=O)N[C@H](C(=O)N[C@@H](Cc1ccc(O)cc1)C(=O)N[C@@H](CO)C(=O)N[C@H](C(=O)N[C@@H](Cc1ccc(O)cc1)C(=O)NCC(=O)N[C@@H](CCCCN)C(=O)N[C@@H](Cc1ccccc1)C(=O)N[C@@H](CC(C)C)C(=O)N[C@@H](C)C(=O)N[C@@H](CC(=O)O)C(=O)NCC(=O)NCC(=O)O)[C@@H](C)O)[C@@H](C)O)[C@@H](C)CC)[C@@H](C)O)[C@@H](C)O)[C@@H](C)O)[C@@H](C)O)C(C)C)[C@@H](C)O [19N 1275-1304] (H-DPNIRTGVRTTTTGSPITYSTYGKFLADGG-OH; N-terminus and C-terminus assumed) | 0.548 µM | 0.15 µM | 0.113 µM | < 1 µM | 1.3 µM | 1.82 µM | > 100 µM | – | < 1 µM | < 1 µM | < 1 µM | < 1 µM | 3.5 µM | < 1 µM | 0.5 µM | 0.55 µM | < 1 µM | > 100 µM | 0.15 µM | – | –
CC[C@H](C)[C@H](NC(=O)[C@@H](NC(=O)[C@H](Cc1ccccc1)NC(=O)[C@@H](NC(=O)[C@@H]1CCCN1C(=O)[C@H](CC(=O)O)NC(=O)[C@H](CC(C)C)NC(=O)[C@H](CO)NC(=O)[C@H](Cc1ccccc1)NC(=O)[C@H](CC(=O)O)NC(=O)[C@@H](NC(=O)[C@@H](NC(=O)[C@H](CCC(N)=O)NC(=O)[C@@H](NC(=O)[C@@H](NC(=O)[C@H](C)NC(=O)[C@@H](N)[C@@H](C)O)C(C)C)[C@@H](C)O)[C@@H](C)O)C(C)C)[C@@H](C)O)[C@@H](C)O)C(=O)N[C@@H](CCC(=O)O)C(=O)N[C@H](C(=O)N[C@H](C(=O)N[C@H](C(=O)N[C@@H](CC(C)C)C(=O)N1CCC[C@H]1C(=O)N[C@@H](CCC(N)=O)C(=O)N[C@@H](CC(=O)O)C(=O)N[C@@H](C)C(=O)O)[C@@H](C)O)[C@@H](C)CC)[C@@H](C)O [26N 1456-1481] | – | 0.04 µM | 0.02 µM | – | – | – | – | – | < 1 µM | < 1 µM | < 1 µM | < 1 µM | – | < 1 µM | 0.008 µM | – | < 1 µM | 0.3 µM | 0.002 µM | < 1 µM | IC50 [21]: < 1 µM; IC50 [22]: < 1 µM; IC50 [23]: < 1 µM
CSCC[C@H](NC(=O)[C@H](Cc1ccc(O)cc1)NC(=O)[C@H](C)NC(=O)[C@H](CCCNC(=N)N)NC(=O)[C@H](CC(C)C)NC(=O)[C@H](CCCNC(=N)N)NC(=O)[C@@H](NC(=O)[C@@H](NC(=O)[C@@H](NC(=O)[C@H](CCC(=O)O)NC(=O)[C@H](C)NC(=O)[C@@H]1CCCN1C(=O)[C@@H](NC(=O)[C@H](CC(C)C)NC(=O)[C@H](CCC(=O)O)NC(=O)[C@H](Cc1ccc(O)cc1)NC(=O)[C@H](Cc1c[nH]c2ccccc12)NC(=O)[C@H](C)NC(=O)[C@H](C)NC(=O)CN)[C@@H](C)O)[C@@H](C)O)[C@@H](C)O)C(C)C)C(=O)N[C@@H](CC(N)=O)C(=O)N[C@H](C(=O)N1CCC[C@H]1C(=O)NCC(=O)N[C@@H](CC(C)C)C(=O)N1CCC[C@H]1C(=O)N[C@H](C(=O)N[C@@H](C)C(=O)N[C@@H](CCC(N)=O)C(=O)N[C@@H](CC(=O)O)C(=O)O)C(C)C)[C@@H](C)O [28N 1524-1553] | – | – | 0.005 µM | – | 0.02 µM | – | – | < 1 µM | < 1 µM | < 1 µM | < 1 µM | < 1 µM | 0.03 µM | < 1 µM | – | 0.001 µM | < 1 µM | 10 µM | – | < 1 µM | IC50 ([12]; competition with biotinylated tracer HA 306-318, read-out: IC50, binding to HLA-DR1): 0.002 µM; affinity for HLA-DR1 (in words) ([12]; legend of FIG. 4): high affinity; IL2 ([24]; patient 067): — 76 pg/ml; IL10 ([24]; patient 067): 86 pg/mL; IL10 ([24]; patient 078): 21 pg/mL; IL4 ([24]; patient 093): — 11 pg/ml; IL10 ([24]; patient 829): 67 pg/mL; IC50 [23]: < 1 µM
